Laboratory results: patent publication US20250319056A1, “METHODS FOR TREATING CANCER” (THE TRUSTEES OF INDIANA UNIVERSITY, priority 2024, published 2025)
Read-outs that look alike come from different tables or passages of the source.

Key:
HT-29 cells = test: AlamarBlue cell viability assay, HT-29 colon cancer cells; assay type: cell-based; conditions: Homo sapiens, 48 h with compound, ^BP = curve baseline plateaued between ~10-20%
DLD-1 cells = test: AlamarBlue cell viability assay, DLD-1 colon cancer cells; assay type: cell-based; conditions: Homo sapiens, 48 h with compound, ^BP = curve baseline plateaued between ~10-20%, read-out: Human Cell Viability EC50 Colon Cancer (DLD1)
[1] = AlamarBlue cell viability assay, non-cancerous intestine FHs-74Int cells; conditions: human
HCT-116 cells = test: AlamarBlue cell viability assay, HCT-116 colon cancer cells; assay type: cell-based, human; conditions: for Average Selectivity Index: CC50 non-cancer cells (FHC, FHs 74Int) compared to EC50 HCT-116; for EC50: AlamarBlue, 48 h with compound, read-out: Human Cell Viability EC50 Colon Cancer (HCT 116)
[2] = AlamarBlue cell viability assay, non-cancerous colon FHC cells; conditions: human
[3] = FHs-74Int non-cancerous intestine cells, Human Cell Viability CC50 Intestine (FHs 74Int), non-cancerous intestine cells, AlamarBlue, 48 h
[4] = FHC non-cancerous colon cells, Human Cell Viability CC50 Colon (FHC), non-cancerous colon cells, AlamarBlue, 48 h

Row | SMILES | EC50 (HT-29 cells) [µM] | EC50 (DLD-1 cells) [µM] | CC50 at 48 h [1, 3] [µM] | Average Selectivity Index (HCT-116 cells) | EC50 (HCT-116 cells; Homo sapiens, HCT-116, 48 h) [µM] | CC50 at 48 h [2, 4] [µM] | EC50 (HCT-116 cells; trihydrate) [µM] | Average Selectivity Index (HCT-116 cells; trihydrate) | CC50 at 48 h [1] [µM] | CC50 at 48 h [2] [µM]
1 | O=C(N/N=C/c1ccc([N+](=O)[O-])o1)c1cccc2ccccc12 [Compound 126] | 4.4 | 11 | 52 | 5.7 | 9.6 | 58 |  |  |  | 
2 | CN(C)c1ccc(C(=O)N/N=C/c2ccc(O)c3ncccc23)cc1 [Compound 140] | 2.4 |  | 42 | 8.8 | 4.4 | 35 |  |  |  | 
3 | O=C(N/N=C/c1ccc([N+](=O)[O-])o1)c1cccs1 [Compound 120] | 3.6 | 14 | 50 | 7.4 | 9.1 | 84 |  |  |  | 
4 | O=Cc1ccc([N+](=O)[O-])o1 [Compound 160] |  |  | 53 | 1.9 | 29 | 53 |  |  |  | 
5 | O=Cc1ccc(O)c2ncccc12 [Compound 159] |  |  | 15 | 1.6 | 6.2 | 4.4 |  |  |  | 
6 | O=C(N/N=C/c1ccc(O)c2ncccc12)c1cccs1 [Compound 135] | 3.6 | 2.3 | 86 | 27 | 3.2 | 85 |  |  |  | 
7 | O=C(N/N=C/c1ccc([N+](=O)[O-])o1)c1ccc(NS(=O)(=O)c2ccc(Br)cc2)cc1 [Compound 131] | 3.6 | 29 | > 100 | 18.8 | 5.3 | > 100 |  |  |  | 
8 | COc1cc(NC(C)CCCN)c2ncccc2c1 (centres unmarked) [Compound 71, Primaquine, reference compound] |  |  | 56.6 |  |  | 77.4 |  |  |  | 
9 | CC1CS(=O)(=O)CCN1/N=C/c1ccc(O)c2ncccc12 (centres unmarked) [Compound 134] | 8.1 | 6.3 | 87 | 13 | 7 | > 100 |  |  |  | 
10 | O=[N+]([O-])c1ccc(O)c2ncccc12 [Nitroxoline, reference compound] |  |  | 41 | 1.6 | 22 | 28 |  |  |  | 
11 | O=C1CN(/N=C/c2ccc([N+](=O)[O-])o2)C(=O)N1 [Nitrofurantoin (Nft), Nitrofurantoin, reference compound] |  |  | > 100 | 1.1 | 95 | > 100 |  |  |  | 
12 | CC(=O)O[C@H]1C(=O)[C@@]2(C)[C@H]([C@H](OC(=O)c3ccccc3)[C@]3(O)C[C@H](OC(=O)[C@H](O)[C@@H](NC(=O)c4ccccc4)c4ccccc4)C(C)=C1C3(C)C)[C@]1(OC(C)=O)CO[C@@H]1C[C@@H]2O [Compound 70, Paclitaxel, reference compound] |  |  | > 100 | 2222.2 | < 0.045 | > 100 |  |  |  | 
13 | O=C(N/N=C/c1ccc([N+](=O)[O-])o1)c1ccc(NS(=O)(=O)c2cccs2)cc1 [Compound 130] | 8.1 | 57 | 69 | 9.3 | 9.1 | > 100 |  |  |  | 
14 | O=C(N/N=C/c1ccc(O)c2ncccc12)c1ccncc1 [Compound 138] |  |  | 69 | 1.8 | 48 | > 100 |  |  |  | 
15 | CN(C)c1ccc2nc3ccc(=[N+](C)C)cc-3sc2c1 [Compound 74, Methylene blue trihydrate, reference compound] |  |  | 23.4 |  | 2.3 to 11 | 31.3 | 2.3 | 11.9 |  | 
16 | COc1ccc(C(=O)NN)cc1 [Compound 161] |  |  | > 100 | 1.0 | > 100 | > 100 |  |  |  | 
17 | COc1ccc(C(=O)N/N=C/c2ccco2)cc1 [Compound 158] |  |  | > 100 | 1.0 | > 100 | > 100 |  |  |  | 
18 | O=C(N/N=C/c1ccc([N+](=O)[O-])o1)c1ccc(O)cc1 [Nifuroxazide (Nfz), Nifuroxazide, reference compound] | 3.5 | 1.5 | 62 | 7.7 | 8.3 | 66 |  |  |  | 
19 | O=C(N/N=C/c1ccc(O)c2ncccc12)c1ccc(NS(=O)(=O)c2ccc(Br)cc2)cc1 [Compound 146] | 1.4 | 6 | 91 | 14 | 5.2 | 59 |  |  |  | 
20 | CC1CS(=O)(=O)CCN1/N=C/c1ccc([N+](=O)[O-])o1 (centres unmarked) [Nifurtimox (Nfx - 106), Nifurtimox, reference compound] |  |  | > 100 | 1.0 | > 100 | > 100 |  |  |  | 
21 | O=C(N/N=C/c1ccc(O)c2ncccc12)c1ccc(NS(=O)(=O)c2cccs2)cc1 [Compound 145] | 2.9 | 5.7 | 6.1 | 6.2 | 2.4 | 24 |  |  |  | 
22 | CCOc1ccc(S(=O)(=O)Nc2ccc(C(=O)N/N=C/c3ccc([N+](=O)[O-])o3)cc2)cc1 [Compound 132, 4-ethoxy-N-(4-(2-((5-nitrofuran-2-yl)methylene)hydrazine-1-carbonyl)phenyl)benzenesulfonamide] | 2.3 | 18 | > 100 | 52.0 | 1.8 | 89 |  |  |  | 
23 | O=C1CN(/N=C/c2ccc(O)c3ncccc23)C(=O)N1 [Compound 133] |  |  | > 100 | 2.6 | 39 | > 100 |  |  |  | 
24 | O=C(N/N=C/c1ccc([N+](=O)[O-])o1)c1ccncc1 [Compound 123] |  |  | 75 | 2.6 | 28 | 70 |  |  |  | 
25 | O=C(N/N=C/c1ccc([N+](=O)[O-])o1)c1ccccc1Oc1ccccc1 [Compound 127] |  | 26 | 55 |  | 11 | 49 |  |  |  | 
26 | O=C(N/N=C/c1ccc(O)c2ncccc12)c1cccc2ccccc12 [Compound 141] | 1.5 | 1.6 | 60 | 13 | 4.1 | 46 |  |  |  | 
27 | O=C(N/N=C/c1ccc([N+](=O)[O-])o1)c1ccccc1 [Compound 122] | 4.9 | 18 | 71 | 6.5 | 13 | > 100 |  |  |  | 
28 | CC(C)n1c(/C=C/C(O)CC(O)CC(=O)O)c(-c2ccc(F)cc2)c2ccccc21 (centres unmarked) [Compound 82, Fluvastatin sodium, reference compound] |  |  | > 100 | 11.6 |  | > 100 |  |  |  | 
29 | COc1ccc(C(=O)N/N=C/c2ccc([N+](=O)[O-])o2)cc1 [Compound 124] | 2.7 | 7.6 | 47 | 16.1 | 4.6 | > 100 |  |  |  | 
30 | CC[n+]1c(-c2ccccc2)c2cc(N)ccc2c2ccc(N)cc21 [Compound 73, Ethidium bromide, reference compound] |  |  |  |  |  |  |  |  | > 100 | > 100
